Patent publication US8835429B2, “Pyrimidine compounds, their use as mTOR kinase and Pl3 kinase inhibitors, and their syntheses” (Wyeth LLC, priority 2009, dated 2014)

What was measured:
[1] = molecular target: PI3K-alpha (Homo sapiens, UniProt P42336); test: PI3K-alpha fluorescence polarization assay; assay type: biochemical; conditions: 20 μM PIP2, 25 μM ATP; read-out: PI3Kα IC50
Method in brief: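 PIP2 (diC8) and ATP substrate with PI3K in 20 mM HEPES pH 7.5, 2 mM MgCl2, 0.05% CHAPS, 0.01% βME; 1% DMSO final; 30–60 min reaction. Stopped with EDTA plus GST-GRP (70 nM) and TAMRA probe (10 nM); FP (mP) read after 30–90 min, with no-enzyme controls.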

[2] = molecular target: PI3K-gamma (Homo sapiens, UniProt P48736); test: PI3K-gamma fluorescence polarization assay; assay type: biochemical; conditions: 20 μM PIP2, 25 μM ATP; read-out: PI3Kγ IC50
PI3K-gamma, sequence (P48736 whole entry, species assumed): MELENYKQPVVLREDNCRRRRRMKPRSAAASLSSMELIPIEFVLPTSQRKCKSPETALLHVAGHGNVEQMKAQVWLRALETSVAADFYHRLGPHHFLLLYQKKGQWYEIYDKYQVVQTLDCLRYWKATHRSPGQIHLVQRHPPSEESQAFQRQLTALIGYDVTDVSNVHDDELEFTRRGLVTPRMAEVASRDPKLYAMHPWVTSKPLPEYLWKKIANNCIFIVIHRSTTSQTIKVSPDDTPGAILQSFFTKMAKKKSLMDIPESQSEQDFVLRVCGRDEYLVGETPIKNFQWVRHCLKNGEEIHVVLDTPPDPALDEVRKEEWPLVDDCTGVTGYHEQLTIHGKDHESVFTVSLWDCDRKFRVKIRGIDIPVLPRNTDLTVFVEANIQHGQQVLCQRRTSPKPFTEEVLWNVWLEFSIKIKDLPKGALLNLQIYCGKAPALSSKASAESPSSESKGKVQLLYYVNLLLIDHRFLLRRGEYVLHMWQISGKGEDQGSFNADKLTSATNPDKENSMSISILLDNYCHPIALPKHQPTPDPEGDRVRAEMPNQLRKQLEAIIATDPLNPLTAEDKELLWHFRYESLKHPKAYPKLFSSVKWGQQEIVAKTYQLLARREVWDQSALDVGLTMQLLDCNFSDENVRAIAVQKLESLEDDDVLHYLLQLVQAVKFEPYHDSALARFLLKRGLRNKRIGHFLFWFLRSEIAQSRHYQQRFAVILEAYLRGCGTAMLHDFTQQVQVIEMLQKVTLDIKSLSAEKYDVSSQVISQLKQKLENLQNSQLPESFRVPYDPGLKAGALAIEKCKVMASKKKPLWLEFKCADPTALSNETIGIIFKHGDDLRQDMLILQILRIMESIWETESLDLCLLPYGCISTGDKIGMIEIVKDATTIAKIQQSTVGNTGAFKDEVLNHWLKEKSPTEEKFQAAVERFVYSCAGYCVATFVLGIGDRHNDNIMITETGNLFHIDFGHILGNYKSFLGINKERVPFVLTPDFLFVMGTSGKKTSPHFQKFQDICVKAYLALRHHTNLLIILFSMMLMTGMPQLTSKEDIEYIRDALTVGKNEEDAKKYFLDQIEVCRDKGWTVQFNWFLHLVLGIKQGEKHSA
Experimental: The reaction buffer was 20 mM HEPES, pH 7.5, 2 mM MgCl2, 0.05% CHAPS; and 0.01% βME (added fresh). The stop/detection buffer was 100 mM HEPES, pH 7.5, 4 mM EDTA, 0.05% CHAPS; ATP 20 mM in water; PIP2 (diC8, Echelon, Salt Lake City Utah cat #P-4508) 1 mM in water (MW=856.5). The GST-GRP was 1.75 mg/mL or 1.4 mg/mL in 10% glycerol. The red detector (TAMRA) was 2.5 μM. Nunc 384-well black polypropylene fluorescent plates were used for PI3K assays.
The assay is run by placing 5 μL of diluted enzyme per well, then 5 μL of diluted compound (or 9.5 μL enzyme then 0.5 μL compound in DMSO) is added and mixed. Then, 10 μL substrate is added to start the reaction. The samples are incubated 30-60 minutes, then the reaction is stopped by adding 20 μL stop/detector mix. PI3K is diluted with reaction buffer (e.g., 5 μL or 7.5 μL PI3K into 620 μL reaction buffer), and 5 μL of diluted enzyme is used per well. A 5 μL portion of reaction buffer or of drug diluted in buffer (e.g., 4 μL/100 so final DMSO is 1% in reaction) is added to each. Pipetting up and down mixes the samples. Alternatively, the enzyme can be diluted to 1215 μL. In this case 9.8 μL is added per well and 0.2 μL compound is added in DMSO.
To prepare 1 mL of substrate solution, 955 μL reaction buffer, 40 μL PIP2, and 2.5 μL ATP are mixed. 10 μL of substrate is added to each well to start the reaction. […] The stop/detector mix is prepared by mixing 4 μL red detector and 1.6 μL or 2.0 μL GST-GRP with 1 mL stop buffer, which results in 10 nM probe and 70 nM GST-GRP. 20 μL of the stop/detector mix is added to each well to stop the reaction. The plates are read after 30-90 minutes keeping the red probe solutions dark. For the zero time point, stop/detector mix is added to the enzyme just before adding substrate. For an extra control, stop/detector mix is added to buffer (no enzyme) and substrate or to just buffer (no substrate). […] The recommended reaction has 0.06 μL per 20 μL (0.015 μg/20 μL) or 0.01125 μg/15 μL or 0.75 μg/mL.
Plates are read on machines with filters for TAMRA. The units are mP with no enzyme controls reading app 190-220 mP units. Fully active enzyme reduces fluorescence polarization down to 70-100 mP after 30 minutes. An active compound raises the mP values halfway to control or to 120-150 mP units.

[3] = test system: LNCap; test: In vitro cell growth assay (MTS), LNCap; assay type: cell-based; conditions: LNCaP, 72 h, human prostate line, three days after drug treatment
[4] = test system: MDA468; test: In vitro cell growth assay (MTS), MDA468; assay type: cell-based; conditions: 72 h, human breast line MDA468, three days after drug treatment, read-out: MDA IC50
[5] = molecular target: mTOR (Homo sapiens, UniProt P42345); test: mTOR enzyme assay (DELFIA, purified FLAG-TOR, His6-S6K substrate); assay type: biochemical; parameters: FLAG; conditions: 100 μM ATP, 2 hours
mTOR, sequence (P42345 1360-2549 limits assumed): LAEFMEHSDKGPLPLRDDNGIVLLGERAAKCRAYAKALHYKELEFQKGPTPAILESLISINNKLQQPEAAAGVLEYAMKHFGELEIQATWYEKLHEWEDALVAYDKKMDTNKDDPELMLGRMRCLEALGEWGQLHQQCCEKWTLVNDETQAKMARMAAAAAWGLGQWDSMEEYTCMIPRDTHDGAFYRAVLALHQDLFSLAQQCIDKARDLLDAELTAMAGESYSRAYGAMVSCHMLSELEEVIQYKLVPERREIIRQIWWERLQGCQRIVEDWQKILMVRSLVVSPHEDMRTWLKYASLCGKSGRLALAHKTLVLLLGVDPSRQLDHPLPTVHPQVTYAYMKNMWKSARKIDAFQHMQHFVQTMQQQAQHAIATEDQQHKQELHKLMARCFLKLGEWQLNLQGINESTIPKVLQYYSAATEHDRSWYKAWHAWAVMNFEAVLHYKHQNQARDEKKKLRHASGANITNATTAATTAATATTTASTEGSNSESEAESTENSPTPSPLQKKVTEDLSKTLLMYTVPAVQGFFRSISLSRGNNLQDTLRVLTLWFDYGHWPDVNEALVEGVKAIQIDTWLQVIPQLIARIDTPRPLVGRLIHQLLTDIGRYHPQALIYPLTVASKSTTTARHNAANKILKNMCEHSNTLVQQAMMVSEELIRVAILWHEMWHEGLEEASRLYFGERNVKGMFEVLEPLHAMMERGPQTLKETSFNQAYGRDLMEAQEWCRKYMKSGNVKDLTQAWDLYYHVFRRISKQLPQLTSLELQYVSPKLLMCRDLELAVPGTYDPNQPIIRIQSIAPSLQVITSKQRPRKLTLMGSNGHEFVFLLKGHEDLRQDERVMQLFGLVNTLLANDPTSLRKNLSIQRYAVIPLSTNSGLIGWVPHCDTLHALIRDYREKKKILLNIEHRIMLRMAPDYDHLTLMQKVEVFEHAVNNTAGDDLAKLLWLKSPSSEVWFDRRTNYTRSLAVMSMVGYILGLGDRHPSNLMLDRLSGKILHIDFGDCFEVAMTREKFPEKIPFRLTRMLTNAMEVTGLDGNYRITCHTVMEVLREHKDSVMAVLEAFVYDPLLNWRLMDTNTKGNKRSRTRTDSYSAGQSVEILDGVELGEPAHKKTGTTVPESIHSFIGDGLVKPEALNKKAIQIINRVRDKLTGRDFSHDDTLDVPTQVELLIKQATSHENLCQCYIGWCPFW

PI3K-alpha, sequence (P42336 whole entry, species assumed): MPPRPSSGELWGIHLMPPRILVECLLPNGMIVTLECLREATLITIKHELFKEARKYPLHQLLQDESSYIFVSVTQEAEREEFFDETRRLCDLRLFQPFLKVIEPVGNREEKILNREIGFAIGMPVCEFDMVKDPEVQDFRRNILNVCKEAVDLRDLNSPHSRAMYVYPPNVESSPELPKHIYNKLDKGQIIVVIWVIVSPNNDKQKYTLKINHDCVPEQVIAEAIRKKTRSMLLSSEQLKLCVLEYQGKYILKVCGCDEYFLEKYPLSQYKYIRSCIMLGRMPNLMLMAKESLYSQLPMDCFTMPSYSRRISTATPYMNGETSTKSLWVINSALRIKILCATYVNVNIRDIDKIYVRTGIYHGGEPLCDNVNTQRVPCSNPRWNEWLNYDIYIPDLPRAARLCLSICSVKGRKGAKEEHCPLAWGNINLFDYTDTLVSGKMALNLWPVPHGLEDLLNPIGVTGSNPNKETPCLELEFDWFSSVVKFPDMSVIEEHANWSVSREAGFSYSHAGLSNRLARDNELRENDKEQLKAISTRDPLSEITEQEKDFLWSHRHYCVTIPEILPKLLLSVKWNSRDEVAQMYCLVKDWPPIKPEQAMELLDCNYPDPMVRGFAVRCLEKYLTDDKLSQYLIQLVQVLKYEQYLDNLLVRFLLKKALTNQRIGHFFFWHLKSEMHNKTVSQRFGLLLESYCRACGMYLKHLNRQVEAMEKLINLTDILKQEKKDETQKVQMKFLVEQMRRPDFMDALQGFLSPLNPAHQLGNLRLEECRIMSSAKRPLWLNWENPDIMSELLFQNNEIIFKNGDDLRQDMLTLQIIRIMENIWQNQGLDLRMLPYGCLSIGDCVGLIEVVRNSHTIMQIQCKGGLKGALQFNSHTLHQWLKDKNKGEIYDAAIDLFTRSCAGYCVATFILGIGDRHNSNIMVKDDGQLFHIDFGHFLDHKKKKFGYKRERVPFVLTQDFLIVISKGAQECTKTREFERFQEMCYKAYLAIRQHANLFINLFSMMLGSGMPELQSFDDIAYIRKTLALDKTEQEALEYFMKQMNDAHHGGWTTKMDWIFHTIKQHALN
PI3K-alpha, sequence (P27986 whole entry partner, species assumed): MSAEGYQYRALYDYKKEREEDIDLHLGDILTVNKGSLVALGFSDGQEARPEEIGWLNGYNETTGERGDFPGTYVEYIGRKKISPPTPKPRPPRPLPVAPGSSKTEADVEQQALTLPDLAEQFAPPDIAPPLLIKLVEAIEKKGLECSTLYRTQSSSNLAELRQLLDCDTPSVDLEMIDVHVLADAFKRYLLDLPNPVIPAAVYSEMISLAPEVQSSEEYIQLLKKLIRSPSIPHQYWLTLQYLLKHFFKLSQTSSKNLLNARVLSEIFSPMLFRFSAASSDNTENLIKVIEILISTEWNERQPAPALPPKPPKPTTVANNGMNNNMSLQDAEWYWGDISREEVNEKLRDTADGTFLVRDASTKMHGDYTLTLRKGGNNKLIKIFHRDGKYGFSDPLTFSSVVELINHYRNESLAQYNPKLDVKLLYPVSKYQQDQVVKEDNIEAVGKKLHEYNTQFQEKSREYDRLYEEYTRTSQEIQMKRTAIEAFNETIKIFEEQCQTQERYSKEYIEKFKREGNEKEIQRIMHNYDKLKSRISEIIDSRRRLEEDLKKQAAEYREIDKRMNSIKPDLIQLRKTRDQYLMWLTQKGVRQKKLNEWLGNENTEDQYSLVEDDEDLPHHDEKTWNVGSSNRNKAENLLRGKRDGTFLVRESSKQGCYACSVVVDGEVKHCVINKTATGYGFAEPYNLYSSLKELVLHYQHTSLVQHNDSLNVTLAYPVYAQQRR

SMILES	IC50 [1] [nM]	IC50 [2] [nM]	IC50 [3] [nM]	IC50 [4] [nM]	IC50 [5] [nM]
CC(C)N1CCN(C(=O)c2ccc(NC(=O)Nc3ccc(-c4nc(N5C[C@@H](C)O[C@@H](C)C5)cc(N5C6CCC5COC6)n4)cc3)cc2)CC1 [1-(4-{4-[(2R,6S)-2,6-dimethylmorpholin-4-yl]-6-(3-oxa-8-azabicyclo[3.2.1]oct-8-yl)pyrimidin-2-yl}phenyl)-3-(4-{[4-(1-methylethyl)piperazin-1-yl]carbonyl}phenyl)urea]	293	915	≤ 0.8	0.8	2.7
C[C@@H]1CN(c2cc(N3C4CCC3COC4)nc(-c3ccc(NC(=O)Nc4ccc(N5CCN(C)CC5)cc4)cc3)n2)C[C@H](C)O1 [1-(4-{4-[(2R,6S)-2,6-dimethylmorpholin-4-yl]-6-(3-oxa-8-azabicyclo[3.2.1]oct-8-yl)pyrimidin-2-yl}phenyl)-3-[4-(4-methylpiperazin-1-yl)phenyl]urea]	1550	6440	30	130	4.4
C[C@@H]1CN(c2cc(N3C4CCC3COC4)nc(-c3ccc(NC(=O)Nc4ccc(N5CCN(C)CC5)nc4)cc3)n2)C[C@H](C)O1 [1-(4-{4-[(2R,6S)-2,6-dimethylmorpholin-4-yl]-6-(3-oxa-8-azabicyclo[3.2.1]oct-8-yl)pyrimidin-2-yl}phenyl)-3-[6-(4-methylpiperazin-1-yl)pyridin-3-yl]urea]	1690	15300	100	200	15.2
C[C@@H]1CN(c2cc(N3C4CCC3COC4)nc(-c3ccc(NC(=O)Nc4ccncc4)cc3)n2)C[C@H](C)O1 [1-(4-{4-[(2R,6S)-2,6-dimethylmorpholin-4-yl]-6-(3-oxa-8-azabicyclo[3.2.1]oct-8-yl)pyrimidin-2-yl}phenyl)-3-pyridin-4-ylurea]	1340	5370	50	280	2.6
C[C@@H]1CN(c2cc(N3C4CCC3COC4)nc(-c3ccc(NC(=O)Nc4ccc(C(=O)N5CCN(C)CC5)cc4)cc3)n2)C[C@H](C)O1 [1-(4-{4-[(2R,6S)-2,6-dimethylmorpholin-4-yl]-6-(3-oxa-8-azabicyclo[3.2.1]oct-8-yl)pyrimidin-2-yl}phenyl)-3-{4-[(4-methylpiperazin-1-yl)carbonyl]phenyl}urea]	180	1030	≤ 0.8	0.8	3.55
C[C@@H]1COCCN1c1cc(N2C3CCC2COC3)nc(-c2ccc(NC(=O)Nc3ccc(N4CCN(C)CC4)cc3)cc2)n1 [1-(4-{4-[(3R)-3-methylmorpholin-4-yl]-6-(3-oxa-8-azabicyclo[3.2.1]oct-8-yl)pyrimidin-2-yl}phenyl)-3-[4-(4-methylpiperazin-1-yl)phenyl]urea]	864	3500	≤ 0.8	1	1.25
C[C@@H]1COCCN1c1cc(N2C3CCC2COC3)nc(-c2ccc(NC(=O)Nc3ccc(N4CCN(C)CC4)nc3)cc2)n1 [1-(4-{4-[(3R)-3-methylmorpholin-4-yl]-6-(3-oxa-8-azabicyclo[3.2.1]oct-8-yl)pyrimidin-2-yl}phenyl)-3-[6-(4-methylpiperazin-1-yl)pyridin-3-yl]urea]	1100	2980	3.5	8	2.5
C[C@@H]1COCCN1c1cc(N2C3CCC2COC3)nc(-c2ccc(NC(=O)Nc3cccnc3)cc2)n1 [1-(4-{4-[(3R)-3-methylmorpholin-4-yl]-6-(3-oxa-8-azabicyclo[3.2.1]oct-8-yl)pyrimidin-2-yl}phenyl)-3-pyridin-3-ylurea]	1060	7470	20	80	0.77
C[C@@H]1COCCN1c1cc(N2C3CCC2COC3)nc(-c2ccc(NC(=O)Nc3ccncc3)cc2)n1 [1-(4-{4-[(3R)-3-methylmorpholin-4-yl]-6-(3-oxa-8-azabicyclo[3.2.1]oct-8-yl)pyrimidin-2-yl}phenyl)-3-pyridin-4-ylurea]	314	778	1	5	0.645
C[C@@H]1COCCN1c1cc(N2C3CCC2COC3)nc(-c2ccc(NC(=O)Nc3ccc(C(=O)N4CCN(C)CC4)cc3)cc2)n1 [1-(4-{4-[(3R)-3-methylmorpholin-4-yl]-6-(3-oxa-8-azabicyclo[3.2.1]oct-8-yl)pyrimidin-2-yl}phenyl)-3-{4-[(4-methylpiperazin-1-yl)carbonyl]phenyl}urea]	78	1130	≤ 0.8	0.8	0.75
C[C@@H]1COCCN1c1cc(N2C3CCC2COC3)nc(-c2ccc(NC(=O)Nc3ccc(CN4CCN(C)CC4)cc3)cc2)n1 [1-(4-{4-[(3R)-3-methylmorpholin-4-yl]-6-(3-oxa-8-azabicyclo[3.2.1]oct-8-yl)pyrimidin-2-yl}phenyl)-3-{4-[(4-methylpiperazin-1-yl)methyl]phenyl}urea]	1300	8480	6	12	1.2
CCNC(=O)Nc1ccc(-c2nc(CN(C)C)cc(N3C4CCC3COC4)n2)cc1 [1-(4-{4-[(dimethylamino)methyl]-6-(3-oxa-8-azabicyclo[3.2.1]oct-8-yl)pyrimidin-2-yl}phenyl)-3-ethylurea]	6240	12600	1100	3000	40
CNC(=O)Nc1ccc(-c2nc(CN(C)C)cc(N3C4CCC3COC4)n2)cc1 [1-(4-{4-[(dimethylamino)methyl]-6-(3-oxa-8-azabicyclo[3.2.1]oct-8-yl)pyrimidin-2-yl}phenyl)-3-methylurea]	8000	> 10000	3600	7000	77
CN(C)Cc1cc(N2C3CCC2COC3)nc(-c2ccc(NC(=O)Nc3cccnc3)cc2)n1 [1-(4-{4-[(dimethylamino)methyl]-6-(3-oxa-8-azabicyclo[3.2.1]oct-8-yl)pyrimidin-2-yl}phenyl)-3-pyridin-3-ylurea]	3160	> 10000	600	1000	10.8
CC(C)N1CCN(C(=O)c2ccc(NC(=O)Nc3ccc(-c4nc(N5C6CCC5COC6)cc(N5CCOC[C@H]5C)n4)cc3)cc2)CC1 [1-(4-{[4-(1-methylethyl)piperazin-1-yl]carbonyl}phenyl)-3-(4-{4-[(3R)-3-methylmorpholin-4-yl]-6-(3-oxa-8-azabicyclo[3.2.1]oct-8-yl)pyrimidin-2-yl}phenyl)urea]	123	1200	≤ 0.8	0.8	0.6
CC(C)N1CCN(C(=O)c2ccc(NC(=O)Nc3ccc(-c4nc(C5CCOCC5)cc(N5C6CCC5COC6)n4)cc3)cc2)CC1 [1-(4-{[4-(1-methylethyl)piperazin-1-yl]carbonyl}phenyl)-3-{4-[4-(3-oxa-8-azabicyclo[3.2.1]oct-8-yl)-6-(tetrahydro-2H-pyran-4-yl)pyrimidin-2-yl]phenyl}urea]	353	3210	≤ 0.8	0.8	0.295
O=C(Nc1ccc(-c2nc(N3C4CCC3COC4)cc(N3C4CCC3COC4)n2)cc1)Nc1cccnc1 [1-[4-(4,6-di-3-oxa-8-azabicyclo[3.2.1]oct-8-ylpyrimidin-2-yl)phenyl]-3-pyridin-3-ylurea]	1130	4490	0.8	5	0.58
